Measured values from patent publication US6521650B1, “Amines as pharmaceutical agents” (Pfizer, Inc., priority 1997, dated 2003).

How the values were obtained:
DBA2 = DBA2 % Protection; type: in vivo

| melting point | Structure (SMILES) | DBA2 % Protection 1 Hr (DBA2) | DBA2 % Protection 2 Hr (DBA2) |
| --- | --- | --- | --- |
| – | CC(C)CC(CN)CP(=O)(O)O (centres unmarked) [PO3H2, (2-Aminomethyl-4-methyl-pentyl)-phosphonic acid] | 0% | 0% |
| – | CC(C)CC(CN)Cc1noc(=S)[nH]1 (centres unmarked) | 0% | 0% |
| 183 to 185 °C | CC(C)CC(CN)Cc1noc(=S)[nH]1.Cl (centres unmarked) | – | – |
